Measured values taken from article PMC5996347, “2-Mercapto-Quinazolinones as Inhibitors of Type II NADH Dehydrogenase and Mycobacterium tuberculosis: Structure–Activity Relationships, Mechanism of Action and Absorption, Distribution, Metabolism, and Excretion Characterization” (ACS Infectious Diseases, 2018).

Tests used:
[1] = system: MTb H37Rv; experiment: Intracellular ATP levels (BacTiter-Glo); conditions: 24 h drug exposure
[2] = system: piniBAC reporter strain; type: cell-based, Mycobacterium tuberculosis; conditions: upregulation of iniBAC promoter
[3] = in vitro; type: in vitro ADME; conditions: PAMPA, pH 7.4
Description: The permeability was performed using a 96-well precoated BD Gentest PAMPA plate (BD Biosciences, U.K.). Each well was divided into two chambers: donor and acceptor, separated by a lipid-oil-lipid trilayer constructed in a porous filter. The effective permeability, Pe, of the compound was measured at pH 7.4. Stock solutions (5 mM) of the compound were prepared in DMSO. The compound was then further diluted to 10 μM in phosphate buffered saline at pH 7.4. […] The compound dissolved in phosphate buffered saline was then added to the donor side of the membrane, and phosphate buffered saline without compound was added to the acceptor side. The PAMPA plate was left at room temperature for 5 h; after which time, an aliquot (100 μL) was then removed from both acceptor and donor compartments and mixed with acetonitrile (80 μL) containing an internal standard: donepezil at 50 ng/mL). The samples were centrifuged (10 min, 5 °C, 3270g) to sediment precipitated protein and sealed prior to UPLC-MS/MS analysis using a Quattro Premier XE (Waters Corp, USA). Pe was calculated as shown in the below equation. [drawing 2] where CA(t) = peak area of compound present in acceptor well at time (t) = 18 000 s; Cequi = [CD(t) × VD + CA(t) × VA]/(VD + VA); A = filter area; VD = donor well volume; VA = acceptor well volume; t = incubation time; CD(t) = peak area of compound present in donor well at time (t) = 18 000 s. Recovery of compound from donor and acceptor wells was calculated, and data was only accepted when recovery exceeded 70%.

[4] = system: ndhA mutant; type: cell-based; conditions: results not shown

O=C(CSc1nc2ccccc2c(=O)[nH]1)NC1CCCCC1 [Compound 1, N-Cyclohexyl-2-((4-oxo-3,4-dihydroquinazolin-2-yl)thio)acetamide]
Cellular ATP levels in MTb [1]: depletion of cellular ATP levels | pini-LUC reporter [2]: Not likely cell wall inhibitor | Papp at 5 h, 10 μM [3]: 8.3 ×10⁻⁶ cm/s | MIC to ndhA mutant strain compared with WT [4]: indistinguishable from WT cells
